Results from ChEMBL document CHEMBL4483862, “Open-source discovery of chemical leads for next-generation chemoprotective antimalarials” (2018).

System: Plasmodium berghei
Experiment: Luciferase/luciferin-expressing antifolate-resistant parasites were used to infect a culture of HepG2 cells that were pre-incubated with compounds. Infected hepatocytes emit light due to the luciferase reaction. Assay results are presented as the percent inhibition of light emission compared to control. […]
Format: functional
Conditions: sporozoite; for IC90: read-out: LUCIFERASE INFECTION ASSAY - IC90
[1] = read-out: LUCIFERASE INFECTION ASSAY - IC50

Row | SMILES | IC90 | IC50 [1] | also measured
1 | Nc1c(C(=O)c2ccccc2O)cnn1-c1ccccc1C(F)(F)F | 3.04 µM | – | IC50 (FFLUC_HILL_SLOPE 18.9, FFLUC_R_SQUARED 0.573, PBLUC_HILL_SLOPE 1.34, PBLUC_R_SQUARED 0.647, read-out: LUCIFERASE INFECTION ASSAY - IC50): 0.594 µM
2 | CC(C)c1ccc(CN(C(=O)Cc2c[nH]c3ccccc23)C2CC2)cc1 | > 10 µM | – | IC50 (PBLUC_HILL_SLOPE 3.49, PBLUC_R_SQUARED 0.314, read-out: LUCIFERASE INFECTION ASSAY - IC50): > 10 µM
3 | CCOC(=O)C1C(C)=NC2=C(C(=O)CC(c3ccc(F)cc3)C2)C1c1ccccc1C(F)(F)F (centres undefined) | > 6.97 µM | – | IC50 (FFLUC_HILL_SLOPE 9.32, FFLUC_R_SQUARED 0.536, HEPG2TOX_HILL_SLOPE 7.97, HEPG2TOX_R_SQUARED 0.882, PBLUC_HILL_SLOPE 14, PBLUC_R_SQUARED 0.0949, read-out: LUCIFERASE INFECTION ASSAY - IC50): 6.64 µM
4 | N=C1c2ccccc2CN1NC(=O)CCCOc1ccc(Cl)cc1Cl | 7.29 µM | – | IC50 (PBLUC_HILL_SLOPE 1.16, PBLUC_R_SQUARED 0.64, read-out: LUCIFERASE INFECTION ASSAY - IC50): 1.1 µM
5 | Cc1cc(C2N=C(N)Nc3nc4ccccc4n32)c(C)n1-c1ccccc1Cl (centres undefined) | 7.59 µM | – | IC50 (PBLUC_HILL_SLOPE 3.33, 1.30, PBLUC_R_SQUARED 0.920, 0.833, read-out: LUCIFERASE INFECTION ASSAY - IC50): 3.92 µM
6 | CCc1cc2c(=O)n(NC(=S)Nc3ccc(OC)cc3)cnc2s1 | > 10 µM | > 10 µM | –
7 | Cc1coc(C)c1C(=O)/C=C/c1ccc2cccnc2c1 | 2.69 µM | 2.51 µM | –
8 | CN(Cc1cc(=O)n2c([nH]c3ccccc32)c1C#N)Cc1c(F)cccc1Cl | 6.11 µM | – | IC50 (HEPG2TOX_HILL_SLOPE 0.22, HEPG2TOX_R_SQUARED 0.757, PBLUC_HILL_SLOPE 1.9, PBLUC_R_SQUARED 0.518, read-out: LUCIFERASE INFECTION ASSAY - IC50): 1.92 µM
9 | O=C(Nc1cccc2c[nH]nc12)c1ccc([N+](=O)[O-])s1 | 7.56 µM | – | IC50 (HEPG2TOX_HILL_SLOPE 0.563, HEPG2TOX_R_SQUARED 0.653, PBLUC_HILL_SLOPE 2.36, PBLUC_R_SQUARED 0.303, read-out: LUCIFERASE INFECTION ASSAY - IC50): 2.98 µM
10 | O=C(CCn1cnc([N+](=O)[O-])c1)Nc1nc(-c2ccccc2)c(-c2ccccc2)s1 | 7.85 µM | – | IC50 (FFLUC_HILL_SLOPE 11.3, FFLUC_R_SQUARED 0.217, PBLUC_HILL_SLOPE 4.55, PBLUC_R_SQUARED 0.65, read-out: LUCIFERASE INFECTION ASSAY - IC50): 4.84 µM
11 | CC(C)c1ccc(OCC(=O)NC2CCCCCC2)cc1 | > 11.4 µM | > 11.4 µM | –
12 | Cc1onc(-c2c(Cl)cccc2Cl)c1CO/N=C(\C#N)c1c(Cl)cccc1Cl | > 7.25 µM | > 7.25 µM | –
13 | CSc1[nH]nc(-c2cc(C(C)(C)C)oc2C)c1C#N | > 12 µM | – | IC50 (PBLUC_HILL_SLOPE 2.91, PBLUC_R_SQUARED 0.01, read-out: LUCIFERASE INFECTION ASSAY - IC50): 8.62 µM
14 | COC(=O)c1cc(Br)ccc1NC(=O)c1cccc(S(=O)(=O)N(Cc2ccccc2)c2ccccc2Cl)c1 | > 10 µM | > 10 µM | –
15 | C=CCOc1ccccc1CN(c1ccc2c(c1)OCCO2)S(=O)(=O)c1cccs1 | > 10 µM | – | IC50 (FFLUC_HILL_SLOPE 11.5, FFLUC_R_SQUARED 0.0724, read-out: LUCIFERASE INFECTION ASSAY - IC50): > 10 µM
16 | Cc1nc2ccccc2c(=O)n1-c1ccc(C(=O)NCCc2ccc3c(c2)OCCO3)cc1 | > 10 µM | > 10 µM | –
17 | Cn1cc(-c2cn3c(-c4cccc(OC(F)(F)F)c4)cnc3cn2)cn1 | > 9.18 µM | – | IC50 (PBLUC_HILL_SLOPE 3.72, PBLUC_R_SQUARED 0.643, read-out: LUCIFERASE INFECTION ASSAY - IC50): 5.44 µM
18 | Cc1ccc(NC(=O)c2csc(Cc3c(Cl)cccc3Cl)n2)cc1 | > 8.75 µM | > 8.75 µM | –
19 | O=c1c(-c2cccc(Cl)c2)c[nH]n1-c1cccc(C(F)(F)F)c1 | > 9.74 µM | – | IC50 (HEPG2TOX_HILL_SLOPE 3.35, HEPG2TOX_R_SQUARED 0.846, PBLUC_HILL_SLOPE 3.63, PBLUC_R_SQUARED 0.619, read-out: LUCIFERASE INFECTION ASSAY - IC50): 5.69 µM
20 | Cn1c(CSc2cccs2)nnc1SCC(=O)Nc1ccc(F)cc1F | > 8 µM | > 8 µM | –
21 | Cc1ccc2nc(-c3ccc(NC(=O)COC(=O)c4oc5ccccc5c4COC(C)C)cc3)sc2c1 | > 10 µM | – | IC50 (FFLUC_HILL_SLOPE 11.7, FFLUC_R_SQUARED 0.82, PBLUC_HILL_SLOPE 2.16, PBLUC_R_SQUARED 0.259, read-out: LUCIFERASE INFECTION ASSAY - IC50): 9.03 µM

Row | SMILES | IC90 | IC50 [1] | also measured
22 | Cc1ccc(N2C(=O)/C(=C\Nc3cc(Cl)ccc3[N+](=O)[O-])c3ccccc3C2=O)c(C)c1 | > 10 µM | – | IC50 (FFLUC_HILL_SLOPE 12.2, FFLUC_R_SQUARED 0.8, read-out: LUCIFERASE INFECTION ASSAY - IC50): > 10 µM
23 | CN1C/C(=C\c2ccccc2Cl)C(=O)/C(=C/c2ccccc2Cl)C1 | 3.58 µM | – | IC50 (HEPG2TOX_HILL_SLOPE 12.3, HEPG2TOX_R_SQUARED 0.936, PBLUC_HILL_SLOPE 378, PBLUC_R_SQUARED 0.452, read-out: LUCIFERASE INFECTION ASSAY - IC50): 3.56 µM
24 | CCc1cc2c(Nc3ccc4c(c3)OCO4)nc(C)nc2s1 | > 10 µM | – | IC50 (PBLUC_HILL_SLOPE 2.79, PBLUC_R_SQUARED 0.532, read-out: LUCIFERASE INFECTION ASSAY - IC50): 6.73 µM
25 | CCCN1CCc2c(sc3c2c(NCCc2ccccc2)nc2nnnn23)C1 | > 8.39 µM | > 8.39 µM | –
26 | CC(Nc1ccc(Oc2ccc(Br)cc2)cc1)C(=O)Nc1ccc(S(N)(=O)=O)cc1 (centres undefined) | > 10 µM | – | IC50 (FFLUC_HILL_SLOPE 6.08, FFLUC_R_SQUARED 0.0812, PBLUC_HILL_SLOPE 2.58, PBLUC_R_SQUARED 0.863, read-out: LUCIFERASE INFECTION ASSAY - IC50): 4.82 µM
27 | COc1cc(Nc2nc(C(F)(F)F)nc3ccccc23)cc(OC)c1OC | > 10 µM | – | IC50 (HEPG2TOX_HILL_SLOPE 10.4, HEPG2TOX_R_SQUARED 0.414, PBLUC_HILL_SLOPE 1.58, PBLUC_R_SQUARED 0.452, read-out: LUCIFERASE INFECTION ASSAY - IC50): 4.12 µM
28 | Cc1nnc(SCCOc2ccc(C(C)(C)C)cc2)n1C1CCCCC1 | > 10 µM | – | IC50 (HEPG2TOX_HILL_SLOPE 0.16, HEPG2TOX_R_SQUARED 0.182, read-out: LUCIFERASE INFECTION ASSAY - IC50): > 10 µM
29 | O=C(NC1CC1)c1ccc(-c2cnc3c(NCC4CC4)nccn23)cc1 | 6.12 µM | – | IC50 (HEPG2TOX_HILL_SLOPE 1.1, HEPG2TOX_R_SQUARED 0.94, PBLUC_HILL_SLOPE 4.24, PBLUC_R_SQUARED 0.447, read-out: LUCIFERASE INFECTION ASSAY - IC50): 3.65 µM
30 | Cc1cc(=O)n2nc(CSc3ncc(-c4ccccc4)n3-c3c(C)cccc3C)sc2n1 | 5.16 µM | 2.38 µM | –
31 | CCN(CC)c1ccc(NC(=O)c2ccc(C)cc2)c(N(CC)CC)n1 | > 9.31 µM | > 9.31 µM | –
32 | N#CC(Cc1ccccc1)Sc1nnc(-c2ccccc2)n1-c1ccccc1 (centres undefined) | > 10 µM | – | IC50 (FFLUC_HILL_SLOPE 0.339, FFLUC_R_SQUARED 0.0197, read-out: LUCIFERASE INFECTION ASSAY - IC50): > 10 µM
33 | CO/N=C1\CCCc2c(C(=O)NNS(=O)(=O)c3ccccc3Cl)sc(SC)c21 | > 7.17 µM | > 7.17 µM | –
34 | Fc1ccc(COc2ccccc2CNCc2cccnc2)cc1 | > 10.2 µM | > 10.2 µM | –
35 | CC(C)c1nnc(SCC(=O)Nc2ccc([N+](=O)[O-])cc2)[nH]1 | > 10 µM | > 10 µM | –
36 | COc1ccc(C2=NN=C/C2=N\Nc2cc(C)cc(C)c2)cc1 | 4.13 µM | – | IC50 (HEPG2TOX_HILL_SLOPE 4.29, HEPG2TOX_R_SQUARED 0.94, PBLUC_HILL_SLOPE 14.3, PBLUC_R_SQUARED 0.412, read-out: LUCIFERASE INFECTION ASSAY - IC50): 3.54 µM
37 | COC(=O)c1c(C)[nH]c(-c2nc(NCc3ccc(C)cc3)sc2C)c1C | 8.74 µM | – | IC50 (HEPG2TOX_HILL_SLOPE 1.4, HEPG2TOX_R_SQUARED 0.957, PBLUC_HILL_SLOPE 3.81, PBLUC_R_SQUARED 0.59, read-out: LUCIFERASE INFECTION ASSAY - IC50): 4.91 µM
38 | CC(C)(C)c1csc(NC(=O)Nc2ccccc2)n1 | > 12 µM | – | IC50 (HEPG2TOX_HILL_SLOPE 1.38, HEPG2TOX_R_SQUARED 0.755, PBLUC_HILL_SLOPE 7.68, PBLUC_R_SQUARED 0.272, read-out: LUCIFERASE INFECTION ASSAY - IC50): 9.6 µM
39 | CCCCCn1c(Sc2ncc([N+](=O)[O-])s2)n[nH]c1=O | > 10.5 µM | – | IC50 (HEPG2TOX_HILL_SLOPE 11.8, HEPG2TOX_R_SQUARED 0.641, PBLUC_HILL_SLOPE 4, PBLUC_R_SQUARED 0.202, read-out: LUCIFERASE INFECTION ASSAY - IC50): 7 µM
40 | O=C(Cc1ccc(-c2ccccc2)cc1)Nc1nc(-c2ccccn2)cs1 | > 10 µM | – | IC50 (PBLUC_HILL_SLOPE 13.5, PBLUC_R_SQUARED 0.18, read-out: LUCIFERASE INFECTION ASSAY - IC50): 9.2 µM
41 | CN1C(=O)N(CCCc2ccncc2)C(=O)C12CCN(Cc1cc3ccccc3[nH]1)CC2 | > 7.65 µM | – | IC50 (HEPG2TOX_HILL_SLOPE 1.79, HEPG2TOX_R_SQUARED 0.954, PBLUC_HILL_SLOPE 8.39, PBLUC_R_SQUARED 0.134, read-out: LUCIFERASE INFECTION ASSAY - IC50): 6.78 µM
42 | Cc1cccc(Cn2nc(C(C)(C)C)cc2C(=O)Nc2ccc(C(C)(C)C)cc2)c1 | > 8.18 µM | – | IC50 (FFLUC_HILL_SLOPE 3.48, FFLUC_R_SQUARED 0.696, read-out: LUCIFERASE INFECTION ASSAY - IC50): > 8.18 µM
